Reference: patent US10316038B2, “Pyrrolopyrimidine ITK inhibitors for treating inflammation and cancer” (ACLARIS THERAPEUTICS, INC., priority 2017, dated 2019)

How the values were obtained:
ITK = target: T1, ITK (Homo sapiens, UniProt Q08881); test: ITK inhibitor binding potency (LanthaScreen competitive binding assay); settings: TR-FRET competitive binding, 10 nM ITK, 50 nM kinase tracer-236; pre-incubation condition not given; read-out: ITK Inhibition IC50
T1 sequence (Q08881 1-620): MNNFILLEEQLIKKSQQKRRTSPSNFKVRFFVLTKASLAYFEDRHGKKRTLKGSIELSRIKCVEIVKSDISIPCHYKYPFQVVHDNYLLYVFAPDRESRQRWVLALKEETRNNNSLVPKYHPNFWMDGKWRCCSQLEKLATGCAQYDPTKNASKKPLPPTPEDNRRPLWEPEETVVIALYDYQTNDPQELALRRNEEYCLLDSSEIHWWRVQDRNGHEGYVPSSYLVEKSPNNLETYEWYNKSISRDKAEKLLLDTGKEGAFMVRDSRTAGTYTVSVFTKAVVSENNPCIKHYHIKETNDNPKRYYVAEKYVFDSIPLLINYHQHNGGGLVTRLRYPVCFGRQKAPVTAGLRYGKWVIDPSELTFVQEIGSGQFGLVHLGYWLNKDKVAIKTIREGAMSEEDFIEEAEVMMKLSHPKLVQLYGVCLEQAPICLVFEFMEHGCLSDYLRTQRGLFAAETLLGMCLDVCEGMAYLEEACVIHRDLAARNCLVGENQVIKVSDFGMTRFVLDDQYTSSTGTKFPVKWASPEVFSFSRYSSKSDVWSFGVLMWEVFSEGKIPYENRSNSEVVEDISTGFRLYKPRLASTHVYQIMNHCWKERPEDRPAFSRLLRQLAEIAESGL
Excerpt: The ability of candidate compounds to interact with ITK is quantitated by a competitive binding assay using the LanthaScreen technology developed by Life Technologies. This assay is based on the binding of a proprietary, Alexa Fluor™ 647-labeled, ATP-competitive kinase inhibitor (kinase tracer-236) to the ITK expression construct in the presence of a Europium-conjugated antibody, resulting in a FRET (fluorescence resonance energy transfer) signal. Displacement of the kinase tracer by compound results in a lower emission ratio upon excitation of the Europium chelate. Candidate compounds are designed as potential irreversible inhibitors of ITK, capable of ligating to an active site cysteine residue resulting in time dependent covalent binding. The time dependent nature of irreversible inhibition is investigated by performing the binding assay with and without a pre-incubation of compound and ITK. […] The inhibitory potency of candidate compounds is measured in 20 mM HEPES pH 7.5, 10 mM MgCl2, 0.01% BSA, 0.0005% Tween-20, and 2% DMSO in the presence of 10 nM ITK, 2 nM Eu-anti-GST antibody, and 50 nM kinase tracer-236 using a 384-well plate format. Background signal is defined in the absence of ITK and uninhibited signal is defined in the presence of vehicle (2% DMSO) alone. Compounds were evaluated in an 11 point dose-response ranging from 20 uM to 0.34 nM. The binding assays are performed under two preincubation conditions to evaluate time dependence of inhibition. For the pre-incubation assay, ITK and Eu-anti-GST antibody are pre-incubated with compound or vehicle for two hours prior to the addition of kinase tracer. The non-preincubated assay is run under conditions where ITK and Eu-anti-GST antibody are added to a mixture of compound and kinase tracer. IC50 values of compounds are determined using a 4 parameter logistical fit of emission ratio as a function of the concentration of compound.

[1] = system: ITK phosphorylation of its substrate, PLCγ1, at Y783; test: ITK target modulation assay (phospho-Y783 PLCγ1 immunoblot in Jurkat T cells); assay type: cell-based; settings: Homo sapiens, Jurkat, 2 h, 2 hours compound, CD3/CD28 Dynabeads stimulation 100 sec, anti-phospho-Y783 PLCγ1 immunoblot, read-out: PLC-γ Inhibition IC50
Method: Target modulation was based upon the ability of a compound to inhibit ITK phosphorylation of its substrate, PLCγ1, at […]. Human Jurkat T cells were placed in snap-cap polypropylene tubes at 4 million per tube in 800 μL medium (RPMI1640 with 10% heat inactivated serum and […] 2-mercaptoethanol and supplemented with glutamine/penicillin/streptomycin). Compounds were added as 100 μL of 10× working stock solutions in medium with 1% DMSO (or medium with 1% DMSO for controls) and placed in a 37° C. incubator for 2 hours. Stimulation was carried out using CD3/CD28 Dynabeads to activate the T cell receptor and mimic antigen presenting cells. Beads were added for 100 sec at a ratio of 1 bead per cell, in 100 μL medium (or medium alone for unstimulated control). Starting at 70 sec, cells and beads were pelleted in a microfuge for 15 sec, the supernatant aspirated, and 50 μL lysis buffer was added per tube and mixed with the pellet at the 100 sec time point. Tubes were placed on a rotator for 30 min at 4° C., and cell debris was pelleted in a microfuge. Supernatant was mixed 1:1 with 2× Sample Buffer and subjected to SDS-polyacrylamide gel electrophoresis. After transfer to nitrocellulose, immunoblotting was done with anti-phospho-[…] PLCγ1 antibody. Immunoblots were visualized with ECL using horseradish peroxidase conjugated secondary antibody.

Row | IC50 (ITK) | IC50 [1] | SMILES
1 | > 1000 nM | > 5000 nM | CN(C)C/C=C/C(=O)Nc1cc(-c2cnc3c(c2)c(-c2cccc(C#N)c2)cn3C)cc(C(F)(F)F)c1 [Example 70]
2 | ≤ 100 nM | ≤ 1000 nM | C=CC(=O)Nc1cc(-c2cnc3[nH]cc(-c4ccncn4)c3c2)cc(C(F)(F)F)c1 [Example 22, N-(3-(3-(pyrimidin-4-yl)-1H-pyrrolo-[2,3-b]pyridin-5-yl)-5-(trifluoro-methyl)phenyl)-acrylamide]
3 | ≤ 100 nM | > 5000 nM | C=CC(=O)Nc1cc(OC)cc(-c2cnc3[nH]cc(-c4ccnc(C#N)c4)c3c2)c1 [Example 51, N-(3-(3-(2-cyano-pyridin-4-yl)-1H-pyrrolo[2,3-b]-pyridin-5-yl)-5-methoxyphenyl)-acrylamide]
4 | ≤ 100 nM | > 5000 nM | CN(C)C/C=C/C(=O)Nc1cccc(-c2cnc3[nH]cc(-c4cncc(C(N)=O)c4)c3c2)c1 [Example 10, (E)-5-(5-(3-(4-(dimethylamino)-but-2-enamido)-phenyl)-1H-pyrrolo[2,3-b]-pyridin-3-yl)-nicotinamide]
5 | ≤ 100 nM | ≤ 1000 nM | CN(C)C/C=C/C(=O)Nc1cncc(-c2cnc3[nH]cc(-c4ccnc(C#N)c4)c3c2)c1 [Example 4, (E)-N-(5-(3-(2-Cyanopyridin-4-yl)-1H-pyrrolo[2,3-b]pyridin-5-yl)pyridin-3-yl)-4-(dimethylamino)but-2-enamide]
6 | ≤ 100 nM | > 5000 nM | CN(C)C/C=C/C(=O)Nc1cccc(-c2cnc3[nH]cc(-c4cn(C)c(=O)c5[nH]ccc45)c3c2)c1 [Example 6, (E)-4-(dimethyl-amino)-N-(3-(3-(6-methyl-7-oxo-6,7-dihydro-1H-pyrrolo[2,3-c]-pyridin-4-yl)-1H-pyrrolo[2,3-b]-pyridin-5-yl)-phenyl)but-2-enamide]
7 | ≤ 100 nM | ≤ 1000 nM | COc1cc(-c2c[nH]c3ncc(-c4cc(NC(=O)/C=C/CN(C)C)cc(C(F)(F)F)c4)cc23)ccn1 [Example 56, (E)-4-(dimethyl-amino)-N-(3-(3-(2-methoxy-pyridin-4-yl)-1H-pyrrolo[2,3-b]-pyridin-5-yl)-5-(trifluoromethyl)-phenyl)but-2-enamide]
8 | ≤ 1000 nM | > 5000 nM | C=CC(=O)Nc1cc(-c2cnc3[nH]cc(-c4cccc(Cl)c4)c3c2)cc(C(F)(F)F)c1 [Example 58, N-(3-(3-(3-chloro-phenyl)-1H-pyrrolo[2,3-b]-pyridin-5-yl)-5-(trifluoro-methyl)phenyl)-acrylamide]
9 | ≤ 100 nM | ≤ 1000 nM | COc1cc(NC(=O)/C=C/CN(C)C)cc(-c2cnc3[nH]cc(-c4ccncc4)c3c2)c1 [Example 53, (E)-4-(dimethyl-amino)-N-(3-methoxy-5-(3-(pyridin-4-yl)-1H-pyrrolo[2,3-b]pyridin-5-yl)phenyl)but-2-enamide]
10 | ≤ 100 nM | ≤ 1000 nM | CN(C)C/C=C/C(=O)Nc1cncc(-c2cnc3[nH]cc(-c4ccnc(F)c4)c3c2)c1 [Example 45, (E)-4-(dimethyl-amino)-N-(5-(3-(2-fluoropyridin-4-yl)-1H-pyrrolo-[2,3-b]pyridin-5-yl)pyridin-3-yl)-but-2-enamide]
11 | – | ≤ 1000 nM | CN(C)C/C=C/C(=O)N(C)c1cncc(-c2cnc3[nH]cc(-c4ccnc(F)c4)c3c2)c1 [Example 74, (E)-4-(dimethyl-amino)-N-(5-(3-(2-fluoropyridin-4-yl)-1H-pyrrolo-[2,3-b]pyridin-5-yl)pyridin-3-yl)-N-methylbut-2-enamide]
12 | ≤ 100 nM | ≤ 1000 nM | Cc1cc(-c2c[nH]c3ncc(-c4cc(NC(=O)/C=C/CN(C)C)cc(C(F)(F)F)c4)cc23)ccn1 [Example 33, (E)-4-(dimethyl-amino)-N-(3-(3-(2-methylpyridin-4-yl)-1H-pyrrolo-[2,3-b]-pyridin-5-yl)-5-(trifluoro-methyl)phenyl)-but-2-enamide]
13 | ≤ 100 nM | > 5000 nM | C=CC(=O)Nc1cccc(-c2cnc3[nH]cc(-c4cncc(C(N)=O)c4)c3c2)c1 [Example 9, 5-(5-(3-acryl-amidophenyl)-1H-pyrrolo[2,3-b]-pyridin-3-yl)-nicotinamide]
14 | ≤ 100 nM | ≤ 1000 nM | C=CC(=O)Nc1cc(-c2cnc3[nH]cc(-c4cncc(C#N)c4)c3c2)cc(C(F)(F)F)c1 [Example 12, N-(3-(3-(5-cyano-pyridin-3-yl)-1H-pyrrolo[2,3-b]-pyridin-5-yl)-5-(trifluoromethyl)-phenyl)acrylamide]
15 | ≤ 100 nM | 1000 to 5000 nM | C=CC(=O)Nc1cc(OC(F)(F)F)cc(-c2cnc3[nH]cc(-c4cccc(C#N)c4)c3c2)c1 [Example 47, N-(3-(3-(3-cyano-phenyl)-1H-pyrrolo[2,3-b]-pyridin-5-yl)-5-(trifluoromethoxy)-phenyl)acrylamide]
16 | ≤ 100 nM | ≤ 1000 nM | C=CC(=O)Nc1cccc(-c2cnc3[nH]cc(-c4cccc(C#N)c4)c3c2C)c1 [Example 43, N-(3-(3-(3-cyano-phenyl)-4-methyl-1H-pyrrolo[2,3-b]pyridin-5-yl)-phenyl)acrylamide]
17 | ≤ 100 nM | 1000 to 5000 nM | C=CC(=O)N(C)c1cccc(-c2cnc3[nH]cc(-c4ccnc(OC)c4)c3c2)c1 [Example 2, N-(3-(3-(2-Methoxypyridin-4-yl)-1H-pyrrolo[2,3-b]pyridin-5-yl)phenyl)-N-methylacrylamide]
18 | ≤ 100 nM | ≤ 1000 nM | C=CC(=O)Nc1cc(-c2cnc3[nH]cc(-c4ccnc(C#N)c4)c3c2)cc(C(F)(F)F)c1 [Example 35, N-(3-(3-(2-cyano-pyridin-4-yl)-1H-pyrrolo[2,3-b]-pyridin-5-yl)-5-(trifluoromethyl)-phenyl)acrylamide]
19 | ≤ 100 nM | ≤ 1000 nM | COc1cc(NC(=O)/C=C/CN(C)C)cc(-c2cnc3[nH]cc(-c4cccc(C#N)c4)c3c2)c1 [Example 19, (E)-N-(3-(3-(3-cyanophenyl)-1H-pyrrolo[2,3-b]-pyridin-5-yl)-5-methoxyphenyl)-4-(dimethyl-amino)but-2-enamide]
20 | – | 1000 to 5000 nM | Cc1cc(NC(=O)/C=C/CN(C)C)cc(-c2cnc3[nH]cc(-c4cccc(C#N)c4)c3c2)c1 [Example 76, (E)-N-(3-(3-(3-cyanophenyl)-1H-pyrrolo[2,3-b]-pyridin-5-yl)-5-methylphenyl)-4-(dimethyl-amino)but-2-enamide]
21 | – | ≤ 1000 nM | COc1cc(-c2c[nH]c3ncc(-c4cncc(N(C)C(=O)/C=C/CN(C)C)c4)cc23)ccn1 [Example 73, (E)-4-(dimethyl-amino)-N-(5-(3-(2-methoxypyridin-4-yl)-1H-pyrrolo-[2,3-b]pyridin-5-yl)pyridin-3-yl)-N-methylbut-2-enamide]
22 | – | 1000 to 5000 nM | C=CC(=O)Nc1cc(C)cc(-c2cnc3[nH]cc(-c4cccc(C#N)c4)c3c2)c1 [Example 75, N-(3-(3-(3-cyano-phenyl)-1H-pyrrolo[2,3-b]-pyridin-5-yl)-5-methylphenyl)-acrylamide]
